Test results reported in patent publication US12433902B2, “Liposomal formulations for inhibiting SARS-CoV-2 replication and reducing lung inflammation” (priority 2021, dated 2025).
Structures can show the parent of a compound that is named as a salt.

Legend:
[1] = system: SARS-CoV-2; settings: cited from earlier work
[2] = cited from earlier work
[3] = Toxicity observation at the 20 μg dose of BUD; type: in vivo, C57BL/6 mice; settings: 20 μg dose of BUD

Compound: CN(C)C(=O)COC(=O)Cc1ccc(OC(=O)c2ccc(NC(=N)N)cc2)cc1 [camostat mesylate]
- SARS-CoV-2 growth ([1]; high doses (e.g., 100 μg/mL)): reduce SARS-CoV-2 growth partially

Compound: human recombinant soluble ACE2: human recombinant soluble ACE2
- viral growth in vitro [1]: reduces viral growth in vitro

Compound: CCCC1O[C@@H]2C[C@H]3[C@@H]4CCC5=CC(=O)C=C[C@]5(C)[C@H]4[C@@H](O)C[C@]3(C)[C@]2(C(=O)CO)O1 (some centres unmarked) [budesonide]
- half-life ([2]; BUD alone in the lungs): about 36 hours
- effective life in the lungs ([2]; BUD alone): slightly more than one day
- toxicity to the spleen, liver, bone marrow, skin or the gastrointestinal tract [3]: without evidence of toxicity
